From ChEMBL document CHEMBL1201862, “PubChem BioAssay data set” (2004)
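Values below derive from 48-hour exposures of cells grown in 96-well plates, with endpoints linearly interpolated between the two concentrations bracketing the appropriate inhibition level. GI50: concentration for 50% inhibition of growth.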 Active and inactive are the calls of the source. No stated cut-off is given here; in the data, active = GI50 up to about 1.1 µM and inactive = higher.

How the values were obtained:
Test in all cases: NCI anticancer screen, dose series, 48 h
K562 = tested on: K562
HOP-92 = tested on: HOP-92
SNB-75 = tested on: SNB-75
M14 = tested on: M14
T47D = tested on: T47D
SF-295 = tested on: SF-295
BT-549 = tested on: BT-549
COLO 205 = tested on: COLO 205
CAKI-1 = tested on: CAKI-1
UACC-257 = tested on: UACC-257
PC-3 = tested on: PC-3
LOX IMVI = tested on: LOX IMVI
UO-31 = tested on: UO-31
IGROV-1 = tested on: IGROV-1
MDA-N = tested on: MDA-N
Malme-3M = tested on: Malme-3M
A549 = tested on: A549
OVCAR-5 = tested on: OVCAR-5
DU-145 = tested on: DU-145
NCI-H522 = tested on: NCI-H522
HL-60 = tested on: HL-60
OVCAR-3 = tested on: OVCAR-3
HCT-15 = tested on: HCT-15
SNB-19 = tested on: SNB-19
SK-MEL-5 = tested on: SK-MEL-5
HT-29 = tested on: HT-29
SK-OV-3 = tested on: SK-OV-3
SF-539 = tested on: SF-539
CCRF-CEM = tested on: CCRF-CEM
EKVX = tested on: EKVX
TK-10 = tested on: TK-10
OVCAR-8 = tested on: OVCAR-8
MDA-MB-231 = tested on: MDA-MB-231
NCI/ADR-RES = tested on: NCI/ADR-RES
UACC-62 = tested on: UACC-62
A498 = tested on: A498
NCI-H23 = tested on: NCI-H23
RPMI-8226 = tested on: RPMI-8226
HCT-116 = tested on: HCT-116
SF-268 = tested on: SF-268
ACHN = tested on: ACHN
SK-MEL-2 = tested on: SK-MEL-2
HOP-62 = tested on: HOP-62
KM12 = tested on: KM12
RXF 393 = tested on: RXF 393
NCI-H460 = tested on: NCI-H460
MOLT-4 = tested on: MOLT-4
NCI-H226 = tested on: NCI-H226
U-251 = tested on: U-251
Hs-578T = tested on: Hs-578T
SN12C = tested on: SN12C
786-0 = tested on: 786-0
SW-620 = tested on: SW-620
SK-MEL-28 = tested on: SK-MEL-28
MDA-MB-435 = tested on: MDA-MB-435
OVCAR-4 = tested on: OVCAR-4
MCF7 = tested on: MCF7

What does the source list for `CC1=NNC(=O)C1C1CC(c2c[nH]c3ccccc23)=NN(C(N)=O)C1=O` (stereo not drawn)?
GI50 (K562): 33 µM (inactive); GI50 (HOP-92): > 100 µM (inactive); GI50 (SNB-75): 87.3 µM (inactive); GI50 (M14): > 100 µM (inactive); GI50 (T47D): 61 µM (inactive); GI50 (SF-295): 61.2 µM (inactive); GI50 (BT-549): 34.3 µM (inactive); GI50 (COLO 205): 53.2 µM (inactive); GI50 (CAKI-1): > 100 µM (inactive); GI50 (UACC-257): > 100 µM (inactive); GI50 (PC-3): 65.3 µM (inactive); GI50 (LOX IMVI): 62.7 µM (inactive); GI50 (UO-31): 28.7 µM (inactive); GI50 (IGROV-1): 4.4 µM (inactive); GI50 (MDA-N): 68.7 µM (inactive); GI50 (Malme-3M): > 100 µM (inactive); GI50 (A549): 64 µM (inactive); GI50 (OVCAR-5): > 100 µM (inactive); GI50 (DU-145): > 100 µM (inactive); GI50 (NCI-H522): 31.8 µM (inactive); GI50 (HL-60): 29 µM (inactive); GI50 (OVCAR-3): > 100 µM (inactive); GI50 (HCT-15): 37.8 µM; GI50 (SNB-19): 75 µM (inactive); GI50 (SK-MEL-5): 82 µM (inactive); GI50 (HT-29): > 100 µM (inactive); GI50 (SK-OV-3): > 100 µM (inactive); GI50 (SF-539): 91.4 µM (inactive); GI50 (CCRF-CEM): 31 µM (inactive); GI50 (EKVX): > 100 µM (inactive); GI50 (TK-10): > 100 µM (inactive); GI50 (OVCAR-8): 98.6 µM (inactive); GI50 (MDA-MB-231): > 100 µM (inactive); GI50 (NCI/ADR-RES): > 100 µM (inactive); GI50 (UACC-62): 80.7 µM (inactive); GI50 (A498): > 100 µM (inactive); GI50 (NCI-H23): 29.9 µM (inactive); GI50 (RPMI-8226): 30.8 µM (inactive); GI50 (HCT-116): 83.2 µM (inactive); GI50 (SF-268): > 100 µM (inactive); GI50 (ACHN): 97.9 µM (inactive); GI50 (SK-MEL-2): > 100 µM (inactive); GI50 (HOP-62): > 100 µM (inactive); GI50 (KM12): 28.5 µM (inactive); GI50 (RXF 393): 52.1 µM (inactive); GI50 (NCI-H460): 62.4 µM (inactive); GI50 (MOLT-4): 33.7 µM (inactive); GI50 (NCI-H226): > 100 µM (inactive); GI50 (U-251): 51.2 µM (inactive); GI50 (Hs-578T): 85.1 µM (inactive); GI50 (SN12C): > 100 µM (inactive); GI50 (786-0): > 100 µM (inactive); GI50 (SW-620): 92.9 µM (inactive); GI50 (SK-MEL-28): > 100 µM (inactive); GI50 (MDA-MB-435): 56 µM (inactive)

For `N#Cc1ccc(N2CCOCC2)cc1`, which GI50 (HOP-92) is on record?
Its GI50 is > 100 µM (inactive).

And the GI50 (SNB-75)?
The GI50 was > 100 µM (inactive).

What about the GI50 (M14) of the same compound?
Its GI50 is > 100 µM (inactive).

What about the GI50 (T47D) of the same compound?
The GI50 was > 100 µM (inactive).

And the GI50 (SF-295)?
The GI50 was > 100 µM (inactive).

What about the GI50 (BT-549) of the same compound?
Its GI50 is 24.9 µM (inactive).

And the GI50 (COLO 205)?
The GI50 was > 100 µM (inactive).

And the GI50 (CAKI-1)?
Its GI50 is > 100 µM (inactive).

And the GI50 (UACC-257)?
The GI50 was > 100 µM (inactive).

What about the GI50 (PC-3) of the same compound?
The GI50 was > 100 µM (inactive).

And the GI50 (LOX IMVI)?
Its GI50 is 23 µM (inactive).

And the GI50 (UO-31)?
Its GI50 is > 100 µM (inactive).

And the GI50 (IGROV-1)?
Its GI50 is > 100 µM (inactive).

What about the GI50 (MDA-N) of the same compound?
The GI50 was > 100 µM (inactive).

What about the GI50 (A549) of the same compound?
The GI50 was > 100 µM (inactive).

What about the GI50 (OVCAR-5) of the same compound?
Its GI50 is > 100 µM (inactive).

What about the GI50 (DU-145) of the same compound?
The GI50 was > 100 µM (inactive).

And the GI50 (NCI-H522)?
Its GI50 is 34.2 µM (inactive).

And the GI50 (HL-60)?
The GI50 was > 100 µM (inactive).

And the GI50 (OVCAR-3)?
The GI50 was > 100 µM (inactive).

And the GI50 (HCT-15)?
Its GI50 is greater than 100 µM.

And the GI50 (SNB-19)?
The GI50 was > 100 µM (inactive).

What about the GI50 (SK-MEL-5) of the same compound?
Its GI50 is > 100 µM (inactive).

What about the GI50 (HT-29) of the same compound?
Its GI50 is > 100 µM (inactive).

What about the GI50 (SK-OV-3) of the same compound?
Its GI50 is > 100 µM (inactive).

What about the GI50 (SF-539) of the same compound?
The GI50 was > 100 µM (inactive).

What about the GI50 (CCRF-CEM) of the same compound?
The GI50 was 0.975 µM (active).

And the GI50 (EKVX)?
The GI50 was > 100 µM (inactive).

What about the GI50 (TK-10) of the same compound?
The GI50 was > 100 µM (inactive).

What about the GI50 (OVCAR-8) of the same compound?
Its GI50 is > 100 µM (inactive).

What about the GI50 (MDA-MB-231) of the same compound?
The GI50 was > 100 µM (inactive).

And the GI50 (NCI/ADR-RES)?
Its GI50 is > 100 µM (inactive).

And the GI50 (UACC-62)?
Its GI50 is > 100 µM (inactive).

What about the GI50 (A498) of the same compound?
Its GI50 is 42.8 µM (inactive).

What about the GI50 (NCI-H23) of the same compound?
Its GI50 is 80.5 µM (inactive).

What about the GI50 (HCT-116) of the same compound?
Its GI50 is > 100 µM (inactive).

And the GI50 (SF-268)?
Its GI50 is > 100 µM (inactive).

What about the GI50 (OVCAR-4) of the same compound?
Its GI50 is > 100 µM (inactive).

And the GI50 (ACHN)?
The GI50 was > 100 µM (inactive).

What about the GI50 (SK-MEL-2) of the same compound?
Its GI50 is > 100 µM (inactive).

What about the GI50 (HOP-62) of the same compound?
The GI50 was > 100 µM (inactive).

And the GI50 (KM12)?
The GI50 was > 100 µM (inactive).

And the GI50 (RXF 393)?
Its GI50 is > 100 µM (inactive).

What about the GI50 (MCF7) of the same compound?
The GI50 was > 100 µM (inactive).

What about the GI50 (NCI-H460) of the same compound?
Its GI50 is > 100 µM (inactive).

What about the GI50 (MOLT-4) of the same compound?
Its GI50 is > 100 µM (inactive).

And the GI50 (U-251)?
Its GI50 is > 100 µM (inactive).

And the GI50 (Hs-578T)?
The GI50 was > 100 µM (inactive).

And the GI50 (SN12C)?
Its GI50 is > 100 µM (inactive).

And the GI50 (786-0)?
The GI50 was > 100 µM (inactive).

And the GI50 (SW-620)?
Its GI50 is > 100 µM (inactive).

And the GI50 (SK-MEL-28)?
Its GI50 is > 100 µM (inactive).

And the GI50 (MDA-MB-435)?
The GI50 was > 100 µM (inactive).
